Laboratory results as given in US20140249135A1, “PIM KINASE INHIBITORS AND METHODS OF THEIR USE” (NOVARTIS AG, priority 2007, published 2014).
Like-named read-outs stand apart in the source and are kept apart here.

What was measured:
KDR kinase = KDR kinase (Homo sapiens, UniProt P35968); experiment: KDR AlphaScreen assay; settings: KDR IC50 (μM)
Pim2 kinase = Pim2 kinase (Homo sapiens, UniProt Q9P1W9); experiment: Pim2 ATP depletion assay; format: biochemical;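 also: Luciferase-based luminescent readout of ATP remaining after PIM2 phosphorylates a BAD peptide, final 5 nM enzyme, 4 µM ATP, 10 µM peptide, 2.5% DMSO, run to roughly half ATP consumption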
Sequence of Pim2 kinase (Q9P1W9 whole entry): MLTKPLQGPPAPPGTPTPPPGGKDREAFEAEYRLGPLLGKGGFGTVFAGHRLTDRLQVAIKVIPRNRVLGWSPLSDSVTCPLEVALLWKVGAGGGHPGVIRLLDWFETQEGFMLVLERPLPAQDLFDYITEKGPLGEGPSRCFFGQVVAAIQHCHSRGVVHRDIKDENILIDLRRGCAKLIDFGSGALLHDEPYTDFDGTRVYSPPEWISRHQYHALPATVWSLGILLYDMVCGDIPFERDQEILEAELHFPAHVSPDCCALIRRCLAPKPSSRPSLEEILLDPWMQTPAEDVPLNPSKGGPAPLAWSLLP

Pim1 kinase = Pim1 kinase (Homo sapiens, UniProt P11309); experiment: Pim1 ATP depletion assay; format: biochemical; settings: Pim1 ATP depletion assay;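 also: Luciferase-luciferin luminescence readout of residual ATP after PIM1 transfers phosphate to a peptide substrate, 40 µM ATP added, reaction run to roughly half ATP consumption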
Sequence of Pim1 kinase (P11309 whole entry): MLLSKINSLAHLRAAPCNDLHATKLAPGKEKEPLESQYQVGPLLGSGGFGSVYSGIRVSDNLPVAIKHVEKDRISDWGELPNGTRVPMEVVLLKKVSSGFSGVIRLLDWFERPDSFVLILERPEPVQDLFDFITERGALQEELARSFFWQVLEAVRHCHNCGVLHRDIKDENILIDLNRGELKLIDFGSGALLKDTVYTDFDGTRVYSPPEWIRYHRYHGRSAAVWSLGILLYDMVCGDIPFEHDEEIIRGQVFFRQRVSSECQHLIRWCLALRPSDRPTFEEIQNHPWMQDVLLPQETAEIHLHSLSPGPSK

Pim3 kinase = Pim3 kinase (Homo sapiens, UniProt Q86V86); experiment: Pim3 ATP depletion assay; format: biochemical

Sequence of KDR kinase (P35968 20-1356): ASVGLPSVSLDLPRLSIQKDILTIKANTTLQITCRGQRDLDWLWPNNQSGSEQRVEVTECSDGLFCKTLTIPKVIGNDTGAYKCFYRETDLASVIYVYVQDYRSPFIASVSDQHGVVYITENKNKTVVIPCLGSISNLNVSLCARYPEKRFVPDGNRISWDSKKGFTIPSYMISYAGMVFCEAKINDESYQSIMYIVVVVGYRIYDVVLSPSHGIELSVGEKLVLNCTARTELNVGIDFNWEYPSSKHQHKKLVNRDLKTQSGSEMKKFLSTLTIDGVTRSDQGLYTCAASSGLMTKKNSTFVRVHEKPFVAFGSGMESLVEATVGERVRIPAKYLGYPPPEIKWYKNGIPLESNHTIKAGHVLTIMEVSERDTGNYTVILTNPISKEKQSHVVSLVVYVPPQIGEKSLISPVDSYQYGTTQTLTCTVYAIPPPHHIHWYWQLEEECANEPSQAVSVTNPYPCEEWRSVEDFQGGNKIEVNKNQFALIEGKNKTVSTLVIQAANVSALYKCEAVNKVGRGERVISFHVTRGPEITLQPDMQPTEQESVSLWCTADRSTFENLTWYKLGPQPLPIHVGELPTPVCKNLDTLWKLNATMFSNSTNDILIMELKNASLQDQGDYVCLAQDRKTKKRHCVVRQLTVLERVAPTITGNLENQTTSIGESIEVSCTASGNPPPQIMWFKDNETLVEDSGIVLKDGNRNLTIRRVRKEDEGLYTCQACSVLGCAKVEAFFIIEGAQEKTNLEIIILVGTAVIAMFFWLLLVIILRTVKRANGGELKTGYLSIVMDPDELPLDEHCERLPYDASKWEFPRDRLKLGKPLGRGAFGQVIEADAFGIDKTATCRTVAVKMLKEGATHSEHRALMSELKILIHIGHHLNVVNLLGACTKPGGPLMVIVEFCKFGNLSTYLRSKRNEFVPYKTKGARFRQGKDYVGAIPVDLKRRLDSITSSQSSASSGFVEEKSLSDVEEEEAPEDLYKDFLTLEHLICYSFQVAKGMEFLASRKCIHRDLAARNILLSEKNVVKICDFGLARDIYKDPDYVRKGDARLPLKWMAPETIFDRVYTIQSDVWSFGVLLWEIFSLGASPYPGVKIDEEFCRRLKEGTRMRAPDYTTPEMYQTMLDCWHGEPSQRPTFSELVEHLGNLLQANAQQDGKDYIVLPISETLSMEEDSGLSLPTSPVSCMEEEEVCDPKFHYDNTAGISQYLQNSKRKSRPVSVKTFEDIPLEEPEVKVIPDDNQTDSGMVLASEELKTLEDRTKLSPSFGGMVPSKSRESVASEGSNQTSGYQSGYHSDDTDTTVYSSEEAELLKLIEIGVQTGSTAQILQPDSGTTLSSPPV

SMILES | IC50 (KDR kinase) [µM] | IC50 (Pim2 kinase; read-out: IC50 (μM) PIM2) [µM] | IC50 (Pim1 kinase; read-out: IC50 (μM) PIM1) [µM] | IC50 (Pim3 kinase; read-out: IC50 (μM) PIM3) [µM] | IC50 (Pim2 kinase; read-out: PIM2 IC50) [µM] | IC50 (Pim1 kinase; read-out: PIM1 IC50) [µM] | IC50 (Pim3 kinase; read-out: PIM3 IC50) [µM]
CC(C)COc1cncc(-c2ccc(N)c(C(=O)Nc3cnccc3N3CCC[C@H](N)C3)n2)n1 [Example 523, 3-Amino-6-(6-isobutoxy-pyrazin-2-yl)-pyridine-2-carboxylic acid (3-amino-3,4,5,6-tetrahydro-2H-[1,4′]bipyridinyl-3′-yl)-amide] | 10 to 25 | < 1 | < 1 | < 1 |  |  | 
Nc1cnc(-c2c(F)cccc2F)nc1C(=O)Nc1cnccc1N1CCCC(O)(C(F)(F)F)C1 (stereo not drawn) [Example 165, 5-Amino-2-(2,6-difluoro-phenyl)-pyrimidine-4-carboxylic acid (3-hydroxy-3-trifluoromethyl-3,4,5,6-tetra-hydro-2H-[1,4′]bipyridinyl-3′-yl)-amide] | 10 to 25 | < 1 | < 1 | < 1 |  |  | 
Nc1ccc(-c2cncc(O)n2)nc1C(=O)Nc1cnccc1N1CCC[C@H](N)C1 [Example 522, 3-Amino-6-(6-hydroxy-pyrazin-2-yl)-pyridine-2-carboxylic acid (3-amino-3,4,5,6-tetrahydro-2H-[1,4′]bipyridinyl-3′-yl)-amide] | 1 to 10 | < 1 | < 1 | < 1 |  |  | 
CC(C)NC(=O)c1ccc(F)c(-c2ncc(N)c(C(=O)Nc3cnccc3N3CCC[C@H](N)C3)n2)c1 [Example 542, 5-Amino-2-(2-fluoro-5-isopropylcarbamoyl-phenyl)-pyrimidine-4-carboxylic acid (3-amino-3,4,5,6-tetrahydro-2H-[1,4′]bipyridinyl-3′-yl)-amide] | 10 to 25 |  |  |  | < 1 | < 1 | < 1
Nc1cc(F)c(-c2c(F)ccc(OCc3ccccc3)c2F)nc1C(=O)Nc1cnccc1N1CCC[C@H](N)C1 [Example 505, 3-Amino-6-(3-benzyloxy-2,6-difluoro-phenyl)-5-fluoro-pyridine-2-carboxylic acid (3-amino-3,4,5,6-tetrahydro-2H-[1,4′]bipyridinyl-3′-yl)-amide] | 10 to 25 | < 1 | < 1 | < 1 |  |  | 
Nc1cnc(-c2ccccc2F)nc1C(=O)Nc1cnccc1N1CCCC(O)(C(F)(F)F)C1 (stereo not drawn) [Example 166, 5-Amino-2-(2-fluoro-phenyl)-pyrimidine-4-carboxylic acid (3-hydroxy-3-trifluoromethyl-3,4,5,6-tetrahydro-2H-[1,4′]bi-pyridinyl-3′-yl)-amide] | 10 to 25 | < 1 | < 1 | < 1 |  |  | 
Nc1ccc(C2CCCC2)nc1C(=O)Nc1cnccc1N1CCC[C@H](N)C1 [Example 644, 3-Amino-6-cyclopentyl-pyridine-2-carboxylic acid (3-amino-3,4,5,6-tetrahydro-2H-[1,4′]bipyridinyl-3′-yl)-amide] | 10 to 25 |  |  |  | < 1 | < 1 | < 1
Nc1ccc(-c2scc3c2OCCO3)nc1C(=O)Nc1cnccc1N1CCC[C@H](N)C1 [Example 447, 3-Amino-6-(2,3-dihydro-thieno[3,4-b][1,4]dioxin-5-yl)-pyridine-2-carboxylic acid (3-amino-3,4,5,6-tetrahydro-2H-[1,4′]bipyridinyl-3′-yl)-amide] | 10 to 25 | < 1 | < 1 | < 1 |  |  | 
Nc1ccc(-c2ccccc2F)nc1C(=O)Nc1cnccc1N1CCCC(O)(C(F)(F)F)C1 (stereo not drawn) [Example 164, 3-Amino-6-(2-fluoro-phenyl)-pyridine-2-carboxylic acid (3-hydroxy-3-trifluoromethyl-3,4,5,6-tetrahydro-2H-[1,4′]bi-pyridinyl-3′-yl)-amide] | 10 to 25 | < 1 | < 1 | < 1 |  |  | 
N[C@H]1CCCN(c2ccncc2NC(=O)c2cccc(-c3ccccc3)n2)C1 [Example 487, 6-Phenyl-pyridine-2-carboxylic acid (3-amino-3,4,5,6-tetrahydro-2H-[1,4′]bipyridinyl-3′-yl)-amide] | 10 to 25 | < 1 | < 1 | < 1 |  |  | 
CC(C)NC(=O)c1ccc(F)c(-c2ccc(N)c(C(=O)Nc3cnccc3N3CCCC(O)(C(F)(F)F)C3)n2)c1 (stereo not drawn) [Example 163, 3-Amino-6-(2-fluoro-5-isopropylcarbamoyl-phenyl)-pyridine-2-carboxylic acid (3-hydroxy-3-trifluoromethyl-3,4,5,6-tetrahydro-2H-[1,4′]bi-pyridinyl-3′-yl)-amide] | 10 to 25 | < 1 | < 1 | < 1 |  |  | 

Results, then the compound that gave them:

IC50 (KDR kinase) [µM] | IC50 (Pim2 kinase; read-out: IC50 (μM) PIM2) [µM] | IC50 (Pim1 kinase; read-out: IC50 (μM) PIM1) [µM] | IC50 (Pim3 kinase; read-out: IC50 (μM) PIM3) [µM] | IC50 (Pim2 kinase; read-out: PIM2 IC50) [µM] | IC50 (Pim1 kinase; read-out: PIM1 IC50) [µM] | IC50 (Pim3 kinase; read-out: PIM3 IC50) [µM] | SMILES
1 to 10 | < 1 | < 1 | < 1 |  |  |  | Cc1nc(N)cc(-c2ccncc2NC(=O)c2nc(-c3ccccc3)ncc2N)n1 [Example 268, 5-Amino-2-phenyl-pyrimidine-4-carboxylic acid [4-(6-amino-2-methyl-pyrimidin-4-yl)-pyridin-3-yl]-amide]
< 1 | < 1 | < 1 | < 1 |  |  |  | Nc1cc(-c2ccccc2)cnc1C(=O)Nc1cnccc1N1CCC[C@H](N)C1 [Example 264, 3-Amino-5-phenyl-pyridine-2-carboxylic acid (3-amino-3,4,5,6-tetrahydro-2H-[1,4′]bipyridinyl-3′-yl)-amide]
1 to 10 | < 1 | < 1 | < 1 |  |  |  | CC1(N)CCCN(c2ccncc2NC(=O)c2nc(-c3ccccc3)ncc2N)C1 (stereo not drawn) [Example 261, 5-Amino-2-phenyl-pyrimidine-4-carboxylic acid (3-amino-3-methyl-3,4,5,6-tetrahydro-2H-[1,4′]bipyridinyl-3′-yl)-amide]
10 to 25 |  |  |  | < 1 | < 1 | < 1 | Nc1cc(-c2ccncc2NC(=O)c2nc(-c3c(F)cccc3F)ccc2N)ncn1 [Example 629, 3-amino-N-[4-(6-aminopyrimidin-4-yl)pyridin-3-yl]-6-(2,6-difluoro-phenyl)pyridine-2-carboxamide]
10 to 25 |  |  |  | < 1 | < 1 | < 1 | Cc1cc(-c2ccncc2NC(=O)c2nc(-c3c(F)ccc(OC(C)C)c3F)ccc2N)cc(N)n1 [Example 538, 3-Amino-6-(2,6-difluoro-3-isopropoxy-phenyl)-pyridine-2-carboxylic acid (2′-amino-6′-methyl-[4,4′]bipyridinyl-3-yl)-amide]
1 to 10 | < 1 | < 1 | < 1 |  |  |  | CSc1nc(N)cc(-c2ccncc2NC(=O)c2nc(-c3cc(C(=O)NC(C)C)ccc3F)ccc2N)n1 [Example 534, 3-Amino-6-(2-fluoro-5-isopropylcarbamoyl-phenyl)-pyridine-2-carboxylic acid [4-(6-amino-2-methylsulfanyl-pyrimidin-4-yl)-pyridin-3-yl]-amide]
1 to 10 | < 1 | < 1 | < 1 |  |  |  | Nc1ccc(-c2ccccc2)nc1C(=O)Nc1cnccc1N1CCC[C@H](N)C1 [Example 524, 3-Amino-6-phenyl-pyridine-2-carboxylic acid (3-amino-3,4,5,6-tetrahydro-2H-[1,4′]bipyridinyl-3′-yl)-amide]
